The data set can be described thus: aqueous solubility of the peptide. In kind it is physicochemical. The following applies: water; stated as significantly higher compared to acyclic 21.

One may read the solubility as the concentration that dissolves in the medium under given conditions. Read a low solubility as little dissolved substance.

On to `COC(=O)C(C)(C)NC(=O)[C@@H]1COCc2cn(nn2)CCC[C@H](NC(=O)C(C)(C)NC(=O)C(C)(C)NC(=O)C(C)(C)NC(=O)OC(C)(C)C)C(=O)NC(C)(C)C(=O)NC(C)(C)C(=O)N1` [compound 23, Methyl 2-methyl-2-((5S,14S)-8,8,11,11-tetramethyl-5-(2,2,6,6,9,9,12,12-octamethyl-4,7,10-trioxo-3-oxa-5,8,11-triazamidecanamido)-6,9,12-trioxo-16-oxa-1,7,10,13,19,20-hexaazabicyclo[16.2.1]henicosa-18 (21),19-dienecarboxamido)propanoate], for which the solubility was greater than 1000 µM.
